Experimental data: patent US12162878B2 (HINOVA PHARMACEUTICALS INC., priority 2018, dated 2024)

Tests used:
Format in all cases: cell-based, human
MDA-MB-453 cells = test: Inhibition of proliferation of MDA-MB-453 cells (CCK-8); details: Homo sapiens, 144 h, 6 days, CCK-8
Description: (§1) • MDA-MB-453 cell line (Cell Bank of Chinese Academy of Sciences, TCHu35) • FBS (Gibco, Cat. No. 10099-141) • 0.01M PBS (Biosharp, Cat. No. 162262) • RIPM1640 (Hyclone, Cat. No. 308090.01) • Penicillin-Streptomycin (Hyclone, Cat. No. SV30010) • Cell counting kit-8 (Signalway Antibody, Cat. No. CP002) • DMSO (Sigma, Cat. No. D5879) • Centrifuge Tube, 15 ml (Excell Bio, Cat. No. CS015-0001) • Cell Culture Dish, (Excell Bio, Cat. No. CS016-0128) • 96-well cell culture cluster (Corning, Cat. No. 3599) 3. Experimental Method
1) MDA-MB-453 cells were subcultured in cell culture media, and the cells in good growth condition were seeded in a 96-well plate, 80 μL for each well, thus the number of cells per well was 1500, then the plate was cultured overnight in a 37° C., 5% CO2 cell incubator.
(§2) 2) The drug was prepared with dimethyl sulfoxide (DMSO) as a 10 mM stock solution. Prior to use, the solution was diluted 3 times with DMSO, and then diluted with a 3-fold gradient to obtain 9 concentration gradients. Then, each concentration of the compound was further diluted 200 times with the culture media (to ensure that DMSO concentration in the culture system was 0.1%), 2 repeat wells for each concentration. The diluted solution of each compound (20 μL) was added to the cell culture well (with a final concentration of 10 μM, 3.3 μM, 1.1 μM . . . ), and shaken gently for mixing. In addition, three negative control wells containing only cells and three blank control wells containing only culture medium (20 μL DMSO diluted 200 times with culture medium being added to six wells) were included.
(§3) (1) After culturing for 6 days, 10 μL CCK-8 was added to each well and cultured for additional 2.5 h in a 37° C., 5% CO2 cell incubator.
(§4) (2) The absorbance (OD value) at 450 nm was measured with a multifunctional microplate reader.
(§5) (3) The data was analyzed by the Dose-response-inhibition equation in the software GraphPad Prism6, and the IC50 value was obtained.

MDA-MB-231 cells = test: Inhibition of proliferation of MDA-MB-231 cells (CCK-8)
Description: as §1, with “MDA-MB-231” for “MDA-MB-453”, “TCHu104)” for “TCHu35)”
1) MDA-MB-231 cells were subcultured in cell culture media, and the cells in good growth condition were seeded in a 96-well plate, 80 μL for each well, thus the number of cells per well was 1500, then the plate was cultured overnight in a 37° C., 5% CO2 cell incubator.
as §2, §3, §4, §5

MCF-7 cells = test: Inhibition of proliferation of MCF-7 cells (CCK-8)
Description: as §1, with “MCF-7” for “MDA-MB-453”, “TCHu74)” for “TCHu35)”
1) MCF-7 cells were subcultured in cell culture media, and the cells in good growth condition were seeded in a 96-well plate, 80 μL for each well, thus the number of cells per well was 1000, then the plate was cultured overnight in a 37° C., 5% CO2 cell incubator.
as §2, with “mixing.” for “mixing. In addition, three negative control wells containing only cells and three blank control wells containing only culture medium (20 μL DMSO diluted 200 times with culture medium being added to six wells) were included.”
In addition, three negative control wells containing only cells and three blank control wells containing only culture medium (20 μL DMSO diluted 200 times with culture medium being added to six wells) were included.
as §3, §4, §5

CWR22RV1 cells [1] = test: Inhibition of proliferation of CWR22RV1 cells (CCK-8); details: Homo sapiens, CWR22Rv1, 144 h, 6 days
Method in brief: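 Cells seeded at 1500/well, cultured overnight, then exposed to compounds in 3-fold dilutions (9 concentrations from 10 μM top final, 0.1% DMSO) for 6 days at 37 °C. Viability read by CCK-8 absorbance at 450 nm after 2.5 h; IC50 from dose-response inhibition fit.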

Vcap cells [2] = test: Inhibition of proliferation of Vcap cells (CCK-8)
Description: as §1, with “Vcap” for “MDA-MB-453”, “TCHu220)” for “TCHu35)”, “DMEM HIGH Glucose” for “RIPM1640”, “SH30243.01)” for “308090.01)”, “2.” for “3.”
1) Vcap cells were subcultured in cell culture media, and the cells in good growth condition were seeded in a 96-well plate, 80 μL for each well, thus the number of cells per well was 10000, then the plate was cultured overnight in a 37° C., 5% CO2 cell incubator.
as §2, §3, §4, §5

CWR22RV1 cells [3] = test: Compound in combination with androgen receptor inhibitor HC-1119, proliferation of CWR22RV1 cells (CCK-8); details: for IC50: Homo sapiens, CWR22Rv1, 144 h, 6 days, read-out: IC50 for inhibition on the activity of CWR22RV1
Description: as §1, with “CWR22RV1” for “MDA-MB-453”, “TCHu100)” for “TCHu35)”, “3599)” for “3599) 3.”, “Method:” for “Method”
1) CWR22RV1 cells were subcultured in cell culture media, and the cells in good growth condition were seeded in a 96-well plate, 60 μL for each well, thus the number of cells per well was 2000, then the plate was cultured overnight in a 37° C., 5% CO2 cell incubator.
(§6) 2) The drug was prepared with dimethyl sulfoxide (DMSO) as a 10 mM stock solution. Prior to use, the solution was diluted 3 times with DMSO, and then diluted with a 3-fold gradient to obtain 9 concentration gradients. Then, each concentration of the compound was further diluted 200 times with the culture media (to ensure that DMSO concentration in the culture system was 0.1%), 2 repeat wells for each concentration. The diluted solution of each compound (20 μL) was added to the cell culture well (with a final concentration of 10 μM, 3.3 μM, 1.1 μM . . . ); while the solution of HC-1119 was diluted with culture media to the concentrations of 50 μM and 15 μM, respectively, and the diluted solution of HC-1119 was added to the corresponding cell culture well (with a final concentration of 10 μM, 3 μM), then shaken gently for mixing. In addition, three negative control wells containing only cells and three blank control wells containing only culture media (20 μL DMSO diluted 200 times with culture media being added to six wells) were included.
as §3, §4, §5

Vcap cells [4] = test: Compound in combination with androgen receptor inhibitor HC-1119, proliferation of Vcap cells (CCK-8); details: for IC50: Homo sapiens, VCaP, 144 h, 6 days, read-out: IC50 for inhibition on the activity of Vcap
Description: as §1, with “Vcap” for “MDA-MB-453”, “TCHu220)” for “TCHu35)”, “DMEM HIGH Glucose” for “RIPM1640”, “SH30243.01)” for “308090.01)”, “Dish” for “Dish,”, “2.” for “3.”
1) Vcap cells were subcultured in cell culture media, and the cells in good growth condition were seeded in a 96-well plate, 60 μL for each well, thus the number of cells per well was 10000, then the plate was cultured overnight in a 37° C., 5% CO2 cell incubator.
as §6, with “10 μM, 1 μM), then” for “10 μM, 3 μM), then”
as §3, §4, §5

[5] = Homo sapiens, 144 h, 6 days, CCK-8

| IC50 (MDA-MB-453 cells) | IC50 (MDA-MB-231 cells; [5]) | IC50 (MCF-7 cells; Homo sapiens, MCF7, 144 h, 6 days, CCK-8) | IC50 (Vcap cells [2]; [5]) | IC50 (Vcap cells [4]; compound alone, Vcap cells) | IC50 (Vcap cells [4]; in combination with 1 μM HC-1119, Vcap cells) | IC50 (Vcap cells [4]; in combination with 10 μM HC-1119, Vcap cells) | Compound | inhibitory action on MDA-MB-231 cells (in words) (MDA-MB-231 cells) | inhibitory action on MCF-7 cells (in words) (MCF-7 cells) | IC50 (CWR22RV1 cells [1]) | inhibitory action on Vcap cells (in words) (Vcap cells [2]) | IC50 (CWR22RV1 cells [3]; compound alone, CWR22RV1 cells) | IC50 (CWR22RV1 cells [3]; in combination with 3 μM HC-1119, CWR22RV1 cells) | IC50 (CWR22RV1 cells [3]; in combination with 10 μM HC-1119, CWR22RV1 cells) | effect of combination with HC-1119 on inhibitory action on CWR22RV1 cells (in words) (CWR22RV1 cells [3]; in combination with HC-1119, CWR22RV1 cells) | effect of combination with HC-1119 on inhibitory action on Vcap cells (in words) (Vcap cells [4]; in combination with HC-1119, Vcap cells) |
| --- | --- | --- | --- | --- | --- | --- | --- | --- | --- | --- | --- | --- | --- | --- | --- | --- |
| 720 nM | 39 nM | 29 nM | – | – | – | – | Cn1cc(-c2cc(S(C)(=O)=O)ccc2N2CCC3(CC2)CC3(F)F)c2cc[nH]c2c1=O [Compound 178, 4-(2-(1,1-difluoro-6-aza-spiro[2.5]octan-6-yl)-5-(methylsulfonyl)phenyl)-6-methyl-1H-pyrrolo[2,3-c]pyridin-7(6H)-one] | effective inhibitory action | effective inhibitory action | 5 nM | – | – | – | – | – | – |
| – | – | – | 3.9 nM | 3.9 nM | 0.076 nM | 0.027 nM | [2H]C([2H])([2H])n1cc(-c2cc(S(=O)(=O)CC)ccc2N2CCC3(CC2)CC3(F)F)c2cc[nH]c2c1=O [Compound 231, 4-(2-(1,1-difluoro-6-aza-spiro[2.5]octan-6-yl)-5-(ethylsulfonyl)phenyl)-6-trideuteromethyl-1H-pyrrolo[2,3-c]pyridin-7(6H)-one] | – | – | – | effective inhibitory action | 1.8 nM | 0.65 nM | 0.51 nM | improve the inhibitory action | improve the inhibitory action |
